Data published in ChEMBL document CHEMBL5365543, “Benzamidine Conjugation Converts Expelled Potential Active Agents into Antifungals against Drug-Resistant Fungi” (J Med Chem, 2023).
In brackets after ≈: the same amount, converted by molar mass. Activity calls are given as the source filed them. The rule behind the calls is not given here.

Key:
Candida albicans [1] = experiment: Antifungal activity against wild-type Candida albicans SC5314 assessed as inhibition of fungal growth measured after 24 hrs by CLSI based microtiter plate analysis; format: functional; conditions: for MIC80: Candida albicans
Candida albicans [2] = experiment: Antifungal activity against clinical isolate Candida albicans YEM13 overexpressing efflux pump MdrL assessed as inhibition of fungal growth measured after 24 hrs by CLSI based microtiter plate analysis; format: functional
Candida albicans [3] = experiment: Antifungal activity against clinical isolate Candida albicans YEM15 overexpressing efflux pump CdrL and Cdr2 assessed as inhibition of fungal growth measured after 24 hrs by CLSI based microtiter plate analysis; format: functional
Candida albicans [4] = experiment: Antifungal activity against clinical isolate Candida albicans SCUPC2R14MPG2A harbouring UPC2 mutation overexpressing […] Erg11 assessed as inhibition of fungal growth measured after 24 hrs by CLSI based microtiter plate analysis; format: functional
Candida albicans [5] = experiment: Antifungal activity against clinical isolate Candida albicans SCMRRIR34MPG2A harbouring MRR1 mutation overexpressing efflux pump MdrL assessed as inhibition of fungal growth measured after 24 hrs by CLSI based microtiter plate analysis; format: functional
Candida albicans [6] = experiment: Antifungal activity against clinical isolate fluconazole-resistant Candida albicans DSY296 harbouring TAC1 mutation overexpressing efflux pump CdrL and Cdr2 assessed as inhibition of fungal growth measured after 24 hrs by CLSI based microtiter plate analysis; format: functional
Candida albicans [7] = experiment: Antifungal activity against clinical isolate fluconazole-resistant Candida albicans G5 harbouring MRR1 mutation overexpressing MdrL assessed as inhibition of fungal growth measured after 24 hrs by CLSI based microtiter plate analysis; format: functional
Candida albicans [8] = experiment: Antifungal activity against clinical isolate fluconazole-resistant Candida albicans Gu5 harbouring TAC1 mutation overexpressing efflux pump CdrL and Cdr2 assessed as inhibition of fungal growth measured after 24 hrs by CLSI based microtiter plate analysis; format: functional
Candida albicans [9] = experiment: Antifungal activity against clinical isolate fluconazole-resistant Candida albicans CA632 assessed as inhibition of fungal growth measured after 24 hrs by CLSI based microtiter plate analysis; format: functional
[Candida] auris [10] = Antifungal activity against clinical isolate fluconazole-resistant Candida auris CBS12774 assessed as inhibition of fungal growth measured after 24 hrs by CLSI based microtiter plate analysis; format: functional; conditions: Candidozyma auris
[Candida] auris [11] = Antifungal activity against clinical isolate fluconazole-resistant Candida auris CBS12776 assessed as inhibition of fungal growth measured after 24 hrs by CLSI based microtiter plate analysis; format: functional; conditions: Candidozyma auris
Nakaseomyces glabratus = experiment: Antifungal activity against clinical isolate fluconazole-resistant Candida glabrata CG2 assessed as inhibition of fungal growth measured after 24 hrs by CLSI based microtiter plate analysis; format: functional
Cryptococcus neoformans = experiment: Antifungal activity against clinical isolate fluconazole-resistant Cryptococcus neoformans H99 assessed as inhibition of fungal growth measured after 24 hrs by CLSI based microtiter plate analysis; format: functional
Candida tropicalis = experiment: Antifungal activity against clinical isolate fluconazole-resistant Candida tropicalis CT10 assessed as inhibition of fungal growth measured after 24 hrs by CLSI based microtiter plate analysis; format: functional
[12] = Drug accumulation in wild-type Candida albicans SC5314 at 50 microg/ml incubated for 3 hrs by HPLC analysis; format: ADME; conditions: dose 50 µg/ml
[13] = Induction of DNA damage in human HBE cells assessed as increase in gammaH2AX level at 2 to 8 microg/ml by Western blotting analysis; format: toxicity, cell-based; conditions: dose 2-8 µg/ml
Candida albicans [14] = experiment: microbe, parasite or virus in culture; format: functional; conditions: DSY654, time 24 hrs
Description: Antifungal activity against efflux pump-deficient Candida albicans DSY654 assessed as inhibition of fungal growth measured after 24 hrs by CLSI based microtiter plate analysis

[15] = Cytotoxicity against human HBE cells assessed as inhibition of cell growth measured after 4 hrs by MTT assay; format: toxicity, cell-based
[16] = Cytotoxicity against mouse L929 cells assessed as inhibition of cell growth measured after 4 hrs by MTT assay; format: toxicity, cell-based
[17] = Induction of hemolysis in mouse RBC cells at 2 to 32 microg/ml incubated for 60 mins by absorbance based analysis; format: toxicity, cell-based, Erythrocyte; conditions: red blood cells (erythrocytes), at 2 to 32 µg/mL, dose 2-32 µg/ml, read-out: Activity
[18] = Drug localization in mitochondria of Candida albicans SC5314 incubated for 30 mins by MitoTracker dye based confocal laser scanning microscopic analysis; format: ADME; conditions: 0.5 h
Candida albicans [19] = experiment: Drug accumulation in Candida albicans SC5314 measured per 10^8 cells incubated for 3 hrs by HPLC analysis; format: functional, organism-based

Compound | MIC (Candida albicans [1]) | MIC80 (Candida albicans [1]; SC5314, 24 h, read-out: MIC80) | MIC80 (Candida albicans [2]) | MIC80 (Candida albicans [3]) | MIC80 (Candida albicans [4]) | MIC80 (Candida albicans [5]) | MIC80 (Candida albicans [6]) | MIC80 (Candida albicans [7]) | MIC80 (Candida albicans [8]) | MIC80 (Candida albicans [9]) | MIC80 ([Candida] auris [10]) | MIC80 ([Candida] auris [11]) | MIC80 (Nakaseomyces glabratus) | MIC80 (Cryptococcus neoformans) | MIC80 (Candida tropicalis) | Drug uptake [12] | MIC80 (Candida albicans [14]) | MIC80 (Candida albicans [1]; SC5314, read-out: MIC80) | IC50 at 4 h [15] | IC50 at 4 h [16] | other results
N=C(N)c1ccc(OCCCN2CCC(=C3c4ccc(Cl)cc4CCc4cccnc43)CC2)cc1 | inactive | 32 µg/mL (≈ 65.7 µM) | 32 µg/mL (≈ 65.7 µM) | 32 µg/mL (≈ 65.7 µM) | 32 µg/mL (≈ 65.7 µM) | 32 µg/mL (≈ 65.7 µM) | 64 µg/mL (≈ 131 µM) | 32 µg/mL (≈ 65.7 µM) | 64 µg/mL (≈ 131 µM) | 32 µg/mL (≈ 65.7 µM) | 64 µg/mL (≈ 131 µM) | 64 µg/mL (≈ 131 µM) | 64 µg/mL (≈ 131 µM) | 16 µg/mL (≈ 32.9 µM) | 32 µg/mL (≈ 65.7 µM) | Active |  |  |  |  | 
C[C@@]12CC[C@@H]3[C@](CC[C@H]4[C@@]3(C)CCC[C@@]4(C)C(=O)OCCCOc3ccc(C(=N)N)cc3)(CC1=O)C2 | inactive | 4 µg/mL (≈ 8.09 µM) | 4 µg/mL (≈ 8.09 µM) | 4 µg/mL (≈ 8.09 µM) | 4 µg/mL (≈ 8.09 µM) | 8 µg/mL (≈ 16.2 µM) | 4 µg/mL (≈ 8.09 µM) | 8 µg/mL (≈ 16.2 µM) | 4 µg/mL (≈ 8.09 µM) | 4 µg/mL (≈ 8.09 µM) | 8 µg/mL (≈ 16.2 µM) | 8 µg/mL (≈ 16.2 µM) | 8 µg/mL (≈ 16.2 µM) | 4 µg/mL (≈ 8.09 µM) | 4 µg/mL (≈ 8.09 µM) | Active |  |  |  |  | Activity [13]: Non-Toxic
C=C1C[C@@]23CC[C@H]4[C@@](C)(CCC[C@@]4(C)C(=O)OCCCCC[n+]4c(C)cc(N)c5ccccc54)[C@@H]2CC[C@]1(O)C3.[I-] |  |  |  |  |  |  |  |  |  |  |  |  |  |  |  |  | 4 µg/mL | 8 µg/mL | 6.53 µg/mL | 8.34 µg/mL | hemolysis at 1 h [17]: < 2%
C=C1C[C@@]23CC[C@H]4[C@@](C)(CCC[C@@]4(C)C(=O)OCCC[P+](c4ccccc4)(c4ccccc4)c4ccccc4)[C@@H]2CC[C@]1(O)C3.[I-] |  |  |  |  |  |  |  |  |  |  |  |  |  |  |  |  | 16 µg/mL | 16 µg/mL | 3.59 µg/mL | 6.94 µg/mL | hemolysis at 1 h [17]: 5.9%
C=CCc1ccc(OCCCOc2ccc(C(=N)N)cc2)c(-c2ccc(O)c(CC=C)c2)c1 | inactive | 8 µg/mL (≈ 18.1 µM) | 8 µg/mL (≈ 18.1 µM) | 8 µg/mL (≈ 18.1 µM) | 8 µg/mL (≈ 18.1 µM) | 8 µg/mL (≈ 18.1 µM) | 8 µg/mL (≈ 18.1 µM) | 8 µg/mL (≈ 18.1 µM) | 8 µg/mL (≈ 18.1 µM) | 8 µg/mL (≈ 18.1 µM) | 8 µg/mL (≈ 18.1 µM) | 16 µg/mL (≈ 36.2 µM) | 16 µg/mL (≈ 36.2 µM) | 8 µg/mL (≈ 18.1 µM) | 16 µg/mL (≈ 36.2 µM) | Active |  |  |  |  | 
C=C1C[C@@]23CC[C@H]4[C@@](C)(CCC[C@@]4(C)C(=O)OCCCn4c(CC)[n+](C)c5ccccc54)[C@@H]2CC[C@]1(O)C3.[I-] |  |  |  |  |  |  |  |  |  |  |  |  |  |  |  |  | 8 µg/mL | 16 µg/mL | > 32 µg/mL | 16.5 µg/mL | hemolysis at 1 h [17]: < 2%
CCN(CC)c1ccc2cc(C(=O)OCCCCCCCCOc3ccc(C(=N)N)cc3)c(=O)oc2c1 |  |  |  |  |  |  |  |  |  |  |  |  |  |  |  |  |  |  |  |  | Drug uptake [18]: Active
C=C1C[C@@]23CC[C@H]4[C@@](C)(CCC[C@@]4(C)C(=O)O)[C@@H]2CC[C@]1(O)C3 [STEVIOL] |  |  |  |  |  |  |  |  |  |  |  |  |  |  |  |  | 256 µg/mL (≈ 804 µM) | > 256 µg/mL |  |  | MIC (Candida albicans [14]): 256 µg/mL (≈ 804 µM); Drug uptake (Candida albicans [19]): inactive
CC/C(=C(/CC)c1ccc(OCCCOc2ccc(C(=N)N)cc2)cc1)c1ccc(O)cc1 | inactive | 4 µg/mL (≈ 9 µM) | 4 µg/mL (≈ 9 µM) | 4 µg/mL (≈ 9 µM) | 4 µg/mL (≈ 9 µM) | 4 µg/mL (≈ 9 µM) | 4 µg/mL (≈ 9 µM) | 4 µg/mL (≈ 9 µM) | 4 µg/mL (≈ 9 µM) | 4 µg/mL (≈ 9 µM) | 4 µg/mL (≈ 9 µM) | 4 µg/mL (≈ 9 µM) | 8 µg/mL (≈ 18 µM) | 8 µg/mL (≈ 18 µM) | 4 µg/mL (≈ 9 µM) | Active |  |  |  |  | 
Cc1ccc(Sc2ccccc2N2CCN(CCCOc3ccc(C(=N)N)cc3)CC2)c(C)c1 | inactive | 4 µg/mL (≈ 8.43 µM) | 4 µg/mL (≈ 8.43 µM) | 4 µg/mL (≈ 8.43 µM) | 4 µg/mL (≈ 8.43 µM) | 4 µg/mL (≈ 8.43 µM) | 4 µg/mL (≈ 8.43 µM) | 8 µg/mL (≈ 16.9 µM) | 4 µg/mL (≈ 8.43 µM) | 4 µg/mL (≈ 8.43 µM) | 8 µg/mL (≈ 16.9 µM) | 8 µg/mL (≈ 16.9 µM) | 8 µg/mL (≈ 16.9 µM) | 4 µg/mL (≈ 8.43 µM) | 4 µg/mL (≈ 8.43 µM) | Active |  |  |  |  | 
